The values below come from PMC6934184, “Selective DNA-PKcs inhibition extends the therapeutic index of localized radiotherapy and chemotherapy” (The Journal of Clinical Investigation, 2019).

For the assay, the target named is T1, GSG2 (Haspin) (Homo sapiens, UniProt Q8TF76).
T1 construct: purchased Thermo Fisher Scientific (Life Technologies) SelectScreen
The assay can be described thus: SelectScreen Adapta. It counts as biochemical. An outline of the steps:
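Compound tested in SelectScreen activity assays, Z'LYTE for CSF1R, CDK1/cyclin B and MAP2K6 and Adapta for CAMK1. ATP for CAMK1 was listed as 10, and Km app was used for CSF1R. Results are expressed in percent.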

T1 sequence (Q8TF76 whole entry): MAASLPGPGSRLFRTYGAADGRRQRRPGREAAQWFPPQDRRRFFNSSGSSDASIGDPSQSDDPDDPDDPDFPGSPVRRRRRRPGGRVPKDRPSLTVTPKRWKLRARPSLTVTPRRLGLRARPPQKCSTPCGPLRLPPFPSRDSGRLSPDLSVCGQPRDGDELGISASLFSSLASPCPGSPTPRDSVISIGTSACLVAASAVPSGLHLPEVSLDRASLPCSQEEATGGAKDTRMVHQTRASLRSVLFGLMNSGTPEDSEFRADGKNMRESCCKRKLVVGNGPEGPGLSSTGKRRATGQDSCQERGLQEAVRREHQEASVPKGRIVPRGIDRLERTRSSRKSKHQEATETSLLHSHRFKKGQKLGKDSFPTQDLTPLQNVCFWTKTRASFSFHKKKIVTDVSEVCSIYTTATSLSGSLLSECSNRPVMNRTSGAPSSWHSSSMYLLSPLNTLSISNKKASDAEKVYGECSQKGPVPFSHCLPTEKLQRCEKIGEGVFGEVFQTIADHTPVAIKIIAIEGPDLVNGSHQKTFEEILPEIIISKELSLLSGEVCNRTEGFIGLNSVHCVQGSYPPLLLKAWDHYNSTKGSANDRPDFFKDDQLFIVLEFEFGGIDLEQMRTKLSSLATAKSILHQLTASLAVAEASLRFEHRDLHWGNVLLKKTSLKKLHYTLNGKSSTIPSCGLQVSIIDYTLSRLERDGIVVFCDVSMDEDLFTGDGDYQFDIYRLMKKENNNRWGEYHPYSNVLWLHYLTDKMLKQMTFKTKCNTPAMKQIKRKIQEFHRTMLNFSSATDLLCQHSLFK

As to `CN(C(=O)CN1CCOCC1)c1ccc2sc3c(-c4cccc5c(=O)cc(N6CC7CCC(C6)O7)oc45)cccc3c2c1` [NU5455], the inhibition at 1 µM was -15%.

The term inhibition denotes the relative decrease from the control value, in per cent.
